Experimental data as given in US11603377B2, “MTORC1 modulators and uses thereof” (Aeovian Pharmaceuticals, Inc., priority 2020, dated 2023).

Legend:
FKBP12 = FKBP12 (Homo sapiens (Human), UniProt P62942); test: SPR assay to determine binding affinity to FKBP12 (direct binding); conditions: immobilized biotinylated avi-FKBP12
Description: SPR Assay to Determine Binding Affinity to FKBP12.
Biotinylated avi-FKBP12 was immobilized on a streptavidin chip (Cytiva Series S SA) using a Biacore 8K or 8 k+ (Cytiva). To achieve an immobilization level of 1000 RU, 2 μg/ml biotinylated avi-FKBP12 were injected for 100 sec at a flow rate of 10 μl/min. Rapalogs were diluted in DMSO to 100× working concentration. Each Rapalog was 100-fold diluted in 50 mM HEPES pH 7.5, 150 mM NaCl, 2 mM MgCl2, 1 mM DTT, 0.05% Tween-20 and a serial dilution prepared (9 concentrations, 3-fold dilutions, 0.08-500 nM). […] The compound dilutions were then injected at 100 uL/min for 120 seconds contact time in sequence with increasing concentrations. Dissociation was monitored for 3600 seconds. 50 mM HEPES pH 7.5, 150 mM NaCl, 2 mM MgCl2, 1 mM DTT, 0.05% Tween-20, 1% DMSO was used as running buffer. The single-cycle kinetics data were fit to a 1:1 binding model to measure the association rate ka (1/Ms), the dissociation rate kd (1/s) and the affinity Kd (M).

FKBP51 = FKBP51 (Homo sapiens (Human), UniProt Q13451); test: SPR assay to determine binding affinity to FKBP51 (direct binding); conditions: immobilized biotinylated avi-FKBP51
Description: Example 29: SPR Assay to Determine Binding Affinity to FKBP51
Biotinylated avi-FKBP51 was immobilized on a streptavidin chip (Cytiva Series S SA) using a Biacore 8K or 8 k+ (Cytiva). To achieve an immobilization level of 2000 RU, 3 μg/ml biotinylated avi-FKBP51 were injected for 360 sec at a flow rate of 10 μl/min. Rapalogs were diluted in DMSO to 100× working concentration. Each Rapalog was 100-fold diluted in 50 mM HEPES pH 7.5, 150 mM NaCl, 2 mM MgCl2, 1 mM DTT, 0.05% Tween-20 and a serial dilution prepared (8 concentrations, 3-fold dilutions, 0.5-1000 nM). […] The compound dilutions were then injected at 100 uL/min for 120 seconds contact time and with 3600 seconds dissociation time with increasing concentrations. 50 mM HEPES pH 7.5, 150 mM NaCl, 2 mM MgCl2, 1 mM DTT, 0.05% Tween-20, 1% DMSO was used as running buffer. Multi-cycle kinetics data were fit to a 1:1 binding model to measure the association rate ka (1/Ms), the dissociation rate kd (1/s) and the affinity Kd (M).

[1] = biological target: FKBP12 / FRB ternary complex (Homo sapiens (Human), UniProt P42345+P62942); test: SPR assay to characterize ternary complex formation with FKBP12 (FRB binding to rapalog-saturated FKBP12); conditions: FRB dilutions with 100 nM rapalog on immobilized FKBP12
Description: Example 30: SPR Assay to Characterize Ternary Complex Formation with FKBP12
(§1) Biotinylated avi-FKBP12 was immobilized on a streptavidin chip (Cytiva Series S SA) using a Biacore 8K or 8 k+ (Cytiva). To achieve an immobilization level of 100 RU, 0.3 μg/ml biotinylated avi-FKBP12 were injected for 80 sec at a flow rate of 10 μl/min. Serial dilution of FRB was prepared (12 concentrations, 3-fold dilutions, 0.00011-20 μM) and supplemented with 100 nM of rapalog. A-B-A injection mode was used to ensure saturation immobilized FKBP12 with respective rapalog. 100 nM solution of the respective rapalog was injected before FRB injection for 120 sec and during dissociation for 420 sec. The FRB dilutions were then injected 120 seconds contact time with increasing concentrations. […] 50 mM HEPES pH 7.5, 150 mM NaCl, 2 mM MgCl2, 1 mM DTT, 0.05% Tween-20, 1% DMSO was used as running buffer at a flow rate of 30 μl/min. The multi-cycle kinetics data were fit to a 1:1 binding model to measure the association rate ka (1/Ms), the dissociation rate kd (1/s) and the affinity Kd (M). In case of fast association and dissociation, steady state affinity analysis following the law of mass action was used to determine the affinity Kd (M).

[2] = biological target: FKBP51 / FRB ternary complex (Homo sapiens (Human), UniProt P42345+Q13451); test: SPR assay to characterize ternary complex formation with FKBP51 (FRB binding to rapalog-saturated FKBP51); conditions: FRB dilutions with 100 nM rapalog on immobilized FKBP51
Description: Example 31: SPR Assay to Characterize Ternary Complex Formation with FKBP51
as §1, with “Biotinylated avi-FKBP51” for “Biotinylated avi-FKBP12”, “of 200” for “of 100”, “RU, 0.6” for “RU, 0.3”, “biotinylated avi-FKBP51” for “biotinylated avi-FKBP12”, “for 150” for “for 80”

mTORC1 = mTORC1 (Homo sapiens (Human), UniProt P42345+P62942); test: mTORC1 inhibition, AlphaLISA of Phospho-p70 S6 kinase (p70S6K pT389) in PC-3 cells; format: cell-based; conditions: inhibition of p70S6K pT389 levels
mTORC2 = mTORC2 (Homo sapiens (Human), UniProt P42345+P62942); test: mTORC2 inhibition, AlphaLISA of Phospho-AKT (pAKT pS473) in PC3 cells; format: cell-based
Description: Example 32: mTORC1 Inhibition, mTORC2 Inhibition, Cell Lysis, AlphaLISA Experiments, and Data Analysis
mTORC2 inhibition was determined via analysis of phosphorylation level of Phospho-AKT (pAKT pS473) with the corresponding AlphaLISA kit (PerkinElmer, Alpha SF Ultra™ Multiplex p-AKT1/2/3(Ser473)/Total AKT1). PC3 cells were plated on 96 well plates in assay medium (DMEM: Ham's F12, basic (CLS Cell Lines Service GmbH, Cat #820400a), supplemented with additional 10% FBS at 1.20E+06 cells/mL and incubated over-night at 37° C., 5% CO2. On the following day, cells were treated with assay medium (10% FBS) containing increasing compound concentrations (12 points at 3-fold dilutions) and incubated for 6 hours at 37° C., 5% CO2. Thereafter, medium was aspirated and cells were rinsed with PBS. In the following, cells were treated with compound dilutions in starvation medium (DMEM: Ham's F12, basic; without FBS) for further 18 h at 37° C., 5% CO2. Then, immediately prior to cell lysis, cells were treated with 12% FBS for 15 min.
After performing experiments according to mTORC1 and mTORC2 protocols, cells were harvested in lysis buffer supplied with the AlphaLISA kits, additionally enriched with Roche cOmplete™ Protease Inhibitor Cocktail (Cat #CO-RO). Thus, cells were lysed using 50 μL of the lysis buffer and incubated for 60 min at 4° C. while shaking. After centrifugation at 4000 rpm for 5 min, experiments were performed according to the AlphaLISA manufacturer's protocol.
Ten microliters of cell lysates were mixed with the acceptor mix. After incubation for 2 h at room temperature, the donor mix was added. After additional incubation at room temperature for 2 hours, AlphaLISA signal was read on PHERAstar® FSX (BMG Labtech) with AlphaPLEX module.
EC50 values were calculated by ExcelFit standard algorithm.

Sequence of FKBP51 (Q13451 whole entry): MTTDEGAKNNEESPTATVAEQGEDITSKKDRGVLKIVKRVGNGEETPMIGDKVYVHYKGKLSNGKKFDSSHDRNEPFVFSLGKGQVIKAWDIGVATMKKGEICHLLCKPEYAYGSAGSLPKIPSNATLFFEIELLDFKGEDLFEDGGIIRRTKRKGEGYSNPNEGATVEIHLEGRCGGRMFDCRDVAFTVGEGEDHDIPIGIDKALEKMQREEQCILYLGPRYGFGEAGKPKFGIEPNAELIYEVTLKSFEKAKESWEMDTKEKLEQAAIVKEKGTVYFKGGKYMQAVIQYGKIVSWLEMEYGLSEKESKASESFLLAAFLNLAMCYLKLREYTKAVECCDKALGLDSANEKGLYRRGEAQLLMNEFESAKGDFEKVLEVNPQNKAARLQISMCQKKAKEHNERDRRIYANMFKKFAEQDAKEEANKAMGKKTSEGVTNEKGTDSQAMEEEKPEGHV
Sequence of FKBP12 (P62942 whole entry): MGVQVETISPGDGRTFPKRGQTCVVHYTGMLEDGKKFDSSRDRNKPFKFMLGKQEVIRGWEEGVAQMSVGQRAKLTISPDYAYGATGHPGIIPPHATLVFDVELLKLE

## COC1CC(CC(C)C2CC(=O)C(C)C=C(C)C(O)C(OC)C(=O)C(C)CC(C)C=CC=CC=C(C)C(OC3CC3)CC3CCC(C)C(O)(O3)C(=O)C(=O)N3CCCCC3C(=O)O2)CCC1OCCCO (stereo not drawn) [Compound 52]
FKBP12
  Kd: 0.3 to 1 nM
FKBP51
  Kd: > 100 nM
[1]
  Kd: < 300 nM
[2]
  Kd: > 800 nM
mTORC1
  IC50: 0.1 to 0.8 nM
mTORC2
  mTORC2 % inhibition at 1 uM: B (B>20% and less than 40% inhibition at 1 uM)

## COCCS(=O)(=O)NC1CC2CCC(C)C(O)(O2)C(=O)C(=O)N2CCCCC2C(=O)OC(C(C)CC2CCC(OCCCS(C)(=O)=O)C(OC)C2)CC(=O)C(C)C=C(C)C(O)C(OC)C(=O)C(C)CC(C)C=CC=CC=C1C (mixture of isomers) [Compound 17]
FKBP12
  Kd: < 0.3 nM
FKBP51
  Kd: 10 to 100 nM
[1]
  Kd: 300 to 800 nM
[2]
  Kd: > 800 nM
mTORC1
  IC50: 0.1 to 0.8 nM
mTORC2
  mTORC2 % inhibition at 1 uM: A (A ≤20% inhibition at 1 micro Molar (uM))

## COC1CC(CC(C)C2CC(=O)C(C)C=C(C)C(O)C(OC)C(=O)C(C)CC(C)C=CC=CC=C(C)C(OCC3CCC3)CC3CCC(C)C(O)(O3)C(=O)C(=O)N3CCCCC3C(=O)O2)CCC1OCCCO (stereo not drawn) [Compound 44]
FKBP12
  Kd: > 1 nM
FKBP51
  Kd: > 100 nM
[1]
  Kd: < 300 nM
[2]
  Kd: > 800 nM
mTORC1
  IC50: 0.1 to 0.8 nM
mTORC2
  mTORC2 % inhibition at 1 uM: C (C≥40% and less than 60% inhibition at 1 uM)

## COC1CC(CC(C)C2CC(=O)C(C)C=C(C)C(O)C(OC)C(=O)C(C)CC(C)C=CC=CC=C(C)C(OC3CC3)CC3CCC(C)C(O)(O3)C(=O)C(=O)N3CCCCC3C(=O)O2)CCC1OCCO (stereo not drawn) [Compound 47]
FKBP12
  Kd: > 1 nM
FKBP51
  Kd: > 100 nM
[1]
  Kd: < 300 nM
[2]
  Kd: > 800 nM
mTORC1
  IC50: > 0.8 nM
mTORC2
  mTORC2 % inhibition at 1 uM: B (B>20% and less than 40% inhibition at 1 uM)

## COCCOCCS(=O)(=O)N[C@H]1C[C@@H]2CC[C@@H](C)[C@@](O)(O2)C(=O)C(=O)N2CCCC[C@H]2C(=O)O[C@H]([C@H](C)C[C@@H]2CC[C@@H](O)[C@H](OC)C2)CC(=O)[C@H](C)/C=C(\C)[C@@H](O)[C@@H](OC)C(=O)[C@H](C)C[C@H](C)/C=C/C=C/C=C/1C [Compound 9]
FKBP12
  Kd: < 0.3 nM
FKBP51
  Kd: < 10 nM
[1]
  Kd: < 300 nM
[2]
  Kd: < 300 nM
mTORC1
  IC50: < 0.1 nM
mTORC2
  mTORC2 % inhibition at 1 uM: C (C≥40% and less than 60% inhibition at 1 uM)

## COCCOCCOCCS(=O)(=O)N[C@H]1C[C@@H]2CC[C@@H](C)[C@@](O)(O2)C(=O)C(=O)N2CCCC[C@H]2C(=O)O[C@H]([C@H](C)C[C@@H]2CC[C@@H](O)[C@H](OC)C2)CC(=O)[C@H](C)/C=C(\C)[C@@H](O)[C@@H](OC)C(=O)[C@H](C)C[C@H](C)/C=C/C=C/C=C/1C [Compound 25]
FKBP12
  Kd: < 0.3 nM
FKBP51
  Kd: 10 to 100 nM
[1]
  Kd: 300 to 800 nM
[2]
  Kd: > 800 nM
mTORC1
  IC50: 0.1 to 0.8 nM
mTORC2
  mTORC2 % inhibition at 1 uM: A (A ≤20% inhibition at 1 micro Molar (uM))

## COC1CC(CC(C)C2CC(=O)C(C)C=C(C)C(O)C(OC)C(=O)C(C)CC(C)C=CC=CC=C(C)C(OCC3CCC3)CC3CCC(C)C(O)(O3)C(=O)C(=O)N3CCCCC3C(=O)O2)CCC1OCCO (stereo not drawn) [Compound 45]
FKBP12
  Kd: > 1 nM
FKBP51
  Kd: > 100 nM
[1]
  Kd: < 300 nM
[2]
  Kd: < 300 nM
mTORC1
  IC50: > 0.8 nM
mTORC2
  mTORC2 % inhibition at 1 uM: B (B>20% and less than 40% inhibition at 1 uM)

## CO[C@@H]1C[C@H](C[C@@H](C)[C@@H]2CC(=O)[C@H](C)/C=C(\C)[C@@H](O)[C@@H](OC)C(=O)[C@H](C)C[C@H](C)/C=C/C=C/C=C(\C)[C@@H](OCCC3CCOC3)C[C@@H]3CC[C@@H](C)[C@@](O)(O3)C(=O)C(=O)N3CCCC[C@H]3C(=O)O2)CC[C@H]1O (stereo partly drawn) [Compound 32]
FKBP12
  Kd: < 0.3 nM
FKBP51
  Kd: 10 to 100 nM
[1]
  Kd: 300 to 800 nM
[2]
  Kd: > 800 nM
mTORC1
  IC50: 0.1 to 0.8 nM
mTORC2
  mTORC2 % inhibition at 1 uM: A (A ≤20% inhibition at 1 micro Molar (uM))

## CO[C@@H]1C[C@H](C[C@@H](C)[C@@H]2CC(=O)[C@H](C)/C=C(\C)[C@@H](O)[C@@H](OC)C(=O)[C@H](C)C[C@H](C)/C=C/C=C/C=C(\C)[C@H](OCC3CCC3)C[C@@H]3CC[C@@H](C)[C@@](O)(O3)C(=O)C(=O)N3CCCC[C@H]3C(=O)O2)CC[C@H]1OCCCS(C)(=O)=O [Compound 63]
FKBP12
  Kd: > 1 nM
[1]
  Kd: 300 to 800 nM
[2]
  Kd: > 800 nM
mTORC1
  IC50: > 0.8 nM
mTORC2
  mTORC2 % inhibition at 1 uM: C (C≥40% and less than 60% inhibition at 1 uM)

## COC1CC(CC(C)C2CC(=O)C(C)C=C(C)C(O)C(OC)C(=O)C(C)CC(C)C=CC=CC=C(C)C(OCC3CCC3)CC3CCC(C)C(O)(O3)C(=O)C(=O)N3CCCCC3C(=O)O2)CCC1O (stereo not drawn) [Compound 37]
FKBP12
  Kd: > 1 nM
[1]
  Kd: 300 to 800 nM
[2]
  Kd: > 800 nM
mTORC1
  IC50: > 0.8 nM
mTORC2
  mTORC2 % inhibition at 1 uM: B (B>20% and less than 40% inhibition at 1 uM)

## CO[C@H]1C[C@@H]2CC[C@@H](C)[C@@](O)(O2)C(=O)C(=O)N2CCCC[C@H]2C(=O)O[C@H]([C@H](C)C[C@@H]2CC[C@@H](O)[C@H](OC)C2)CC(=O)[C@H](C)/C=C(\C)[C@@H](O)[C@@H](OC)C(=O)[C@H](C)C[C@H](C)/C=C/C=C/C=C/1C [Rapamycin, reference compound]
FKBP51
  Kd: < 10 nM
mTORC2; PC-3, read-out: mTORC2 % inhibition at 1 uM
  inhibition at 1 µM: ≥ 60%
